“Also recorded” adds a separate entry of the source. Peptide text beside a SMILES is read from it.

The conditions of data set [1]: b7: ref [9], [10]; b55: ref [10]; cited from earlier work.
For data set [2], the target named is PmtCD PSM transporter (C2D2 heterotetramer) (S. aureus). The data set can be described thus: MST.

Turning to `CSCC[C@H](NC=O)C(=O)N[C@@H](CCC(=O)O)C(=O)N[C@@H](C)C(=O)N[C@H](C(=O)N[C@@H](C)C(=O)N[C@@H](CCCCN)C(=O)N[C@@H](CC(C)C)C(=O)N[C@@H](Cc1ccccc1)C(=O)N[C@@H](CCCCN)C(=O)N[C@@H](Cc1ccccc1)C(=O)N[C@@H](Cc1ccccc1)C(=O)N[C@@H](CCCCN)C(=O)N[C@@H](CC(=O)O)C(=O)N[C@@H](CC(C)C)C(=O)N[C@@H](CC(C)C)C(=O)NCC(=O)N[C@@H](CCCCN)C(=O)N[C@@H](Cc1ccccc1)C(=O)N[C@@H](CC(C)C)C(=O)NCC(=O)N[C@@H](CC(N)=O)C(=O)N[C@@H](CC(N)=O)C(=O)O)C(C)C` [PSMα3F3A] (HELM PEPTIDE1{[O=C[*:2]].M.E.A.V.A.K.L.F.K.F.F.K.D.L.L.G.K.F.L.G.N.N}$$$$V2.0), in data set [1], the “cytotoxicity (in words)” value is listed as “cytotoxic; also recorded: maintains cytotoxicity”.

As usually defined, the stoichiometry N is a count of units in the complex or per binding partner. With PSMα3F3A peptide, in data set [2], the stoichiometry N is > 2.
